Here are results for four molecules from ChEMBL document CHEMBL2331296, “Synthesis of tetrahydroxybiphenyls and tetrahydroxyterphenyls and their evaluation as amyloid-β aggregation inhibitors” (Bioorg Med Chem Lett, 2013).

In assay [1] the target is T1, Amyloid-beta precursor protein (Homo sapiens, UniProt P05067). Briefly: Inhibition of amyloid-beta40 (unknown origin) aggregation by congo red spectral-shift assay.
The target in assay [2] is T1, Amyloid-beta precursor protein. Briefly: Displacement of congo red from amyloid-beta40 (unknown origin) assessed as reduction of congo red-amyloid beta40 complex level. Also noted: scale not given: the % may be the effect or the level left.
Assay [3] shares this target. Description: Inhibition of amyloid-beta40 (unknown origin) aggregation at 250 uM by congo red spectral-shift assay.

Calls of active or inactive are those of the source. No cut-off for these calls is given here.

T1 sequence (P05067 whole entry): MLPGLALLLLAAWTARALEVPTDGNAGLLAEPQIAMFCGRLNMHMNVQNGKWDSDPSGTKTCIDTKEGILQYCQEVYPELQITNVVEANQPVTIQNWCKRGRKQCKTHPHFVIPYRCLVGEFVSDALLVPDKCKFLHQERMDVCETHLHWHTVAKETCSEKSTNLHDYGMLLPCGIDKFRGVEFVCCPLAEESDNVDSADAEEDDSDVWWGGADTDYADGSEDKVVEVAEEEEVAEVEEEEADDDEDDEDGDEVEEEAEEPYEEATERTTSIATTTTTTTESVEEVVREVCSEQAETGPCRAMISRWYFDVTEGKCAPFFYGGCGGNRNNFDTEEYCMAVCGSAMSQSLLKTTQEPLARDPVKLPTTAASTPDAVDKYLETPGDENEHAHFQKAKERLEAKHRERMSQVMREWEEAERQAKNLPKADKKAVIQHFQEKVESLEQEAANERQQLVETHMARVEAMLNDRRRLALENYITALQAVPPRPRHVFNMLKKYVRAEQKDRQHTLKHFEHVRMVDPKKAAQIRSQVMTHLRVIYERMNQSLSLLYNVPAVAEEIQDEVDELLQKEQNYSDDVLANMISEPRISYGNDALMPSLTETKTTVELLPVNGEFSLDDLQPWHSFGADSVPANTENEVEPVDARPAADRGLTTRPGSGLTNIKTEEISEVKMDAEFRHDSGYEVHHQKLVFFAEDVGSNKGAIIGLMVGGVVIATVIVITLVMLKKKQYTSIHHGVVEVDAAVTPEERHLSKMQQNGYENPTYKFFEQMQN

As to `Oc1ccc(-c2cccc(-c3ccc(O)c(O)c3)c2)cc1O`, in assay [1], the IC50 turned out to be 92.5 µM. Also, in assay [2], the Activity is 2.6%. The result in assay [3] was inactive.
For `Oc1ccc(-c2ccc(O)c(O)c2)cc1O`, the IC50 in assay [1] is 25 µM. In addition, the Activity in assay [2] came to 2.6%.
As to `Oc1ccc(-c2ccc(-c3ccc(O)c(O)c3)cc2)cc1O`, in assay [3], the result was Active.
Take `Oc1ccc(-c2ccccc2-c2ccc(O)c(O)c2)cc1O`: in assay [1], the IC50 was determined as 67.5 µM. Besides, the Activity in assay [2] was 2.6%. For the same molecule, in assay [3], the outcome was inactive.
